In one data set the target is T1, hP2Y14R (Homo sapiens, UniProt Q15391).
T1 construct: expressed in transfected cells; host or cells: CHO cells
T1 sequence (Q15391 1-338): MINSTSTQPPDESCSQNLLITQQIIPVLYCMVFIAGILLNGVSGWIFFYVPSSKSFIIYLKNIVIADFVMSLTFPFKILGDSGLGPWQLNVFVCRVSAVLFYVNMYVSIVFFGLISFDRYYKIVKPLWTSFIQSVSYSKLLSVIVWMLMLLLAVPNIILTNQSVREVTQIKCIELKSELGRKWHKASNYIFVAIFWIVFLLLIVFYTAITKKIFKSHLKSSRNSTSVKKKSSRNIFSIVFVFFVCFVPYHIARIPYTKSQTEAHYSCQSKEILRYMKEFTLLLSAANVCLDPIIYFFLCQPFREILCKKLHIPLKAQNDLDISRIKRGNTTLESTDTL
The experiment in a line: Inhibition of fluorescent antagonist binding in whole hP2Y14R-expressing CHO cells (flow cytometry).

Data set [1] can be described thus: HPLC-based lipophilicity (Log D7.4). The conditions noted are these: for chromatographic logD: pH 7.4.
The nature of data set [2]: Aqueous solubility, pION method.
[3] abbreviates: Table 2, whole hP2Y14R-CHO cells, 20 nM fluorescent antagonist 3, mean+SEM, n = 3-6, read-out: IC50.

In brackets after ≈: the same amount, converted by molar mass. Where two headings read alike, the source gives them in different places. Marks after values point to notes of the source that are not given here.

Here are results for 22 molecules from patent US20240150290A1, “HETEROCYCLIC P2Y14 RECEPTOR ANTAGONISTS” (priority 2021, published 2024).

In the case of `O=C(O)c1cc(-c2ccc(C3C4CCC3CNC4)cc2)c2ccc(-c3ccc(C(F)(F)F)cc3)cc2c1` (centres unmarked) [Compound 129, 4-(4-(3-Azabicyclo[3.2.1]octan-8-yl)phenyl)-7-(4-(trifluoromethyl)phenyl)-2-naphthoic acid], the IC50 – broadly, the concentration at which inhibition is half-maximal – at hP2Y14R (setting [3]) is 0.0383 ± 0.002 µM. Further, the “Log D7.4” value in data set [1] (calculated from retention factor difference between ligands and 1 (k = 3.41)) is given as 2.33 ± 0.09^f. Besides, in data set [2], the “Solubility (ug/mL) pH 4” value is 0.38 ± 0.04 ug/mL and the “Solubility (ug/mL) pH 7.4” value is reported as 0.13 ± 0.00 ug/mL.
Consider `O=C(O)c1cc(-c2ccc(C3CC4CCC3CN4)cc2)c2ccc(-c3ccc(C(F)(F)F)cc3)cc2c1` (racemic) [Compound 126], for which the chromatographic logD (usually a lipophilicity value derived from retention on a column) in data set [1] amounted to 1.74 ± 0.02. Moreover, in data set [2], the “Solubility (ug/mL) pH 4” value turned out to be 0.80 ± 0.05 ug/mL and the “Solubility (ug/mL) pH 7.4” value amounted to 0.49 ± 0.06 ug/mL.
Turning to `CC1CC(c2ccc(-c3cc(C(=O)O)cc4cc(-c5ccc(C(F)(F)F)cc5)ccc34)cc2)CCN1` (centres unmarked) [Compound 107, 4-(4-(2-Methylpiperidin-4-yl)phenyl)-7-(4-(trifluoromethyl)phenyl)-2-naphthoic acid], the IC50 at hP2Y14R (setting [3]) was 0.0178 ± 0.002 µM. In data set [1], this molecule came in with a chromatographic logD of 2.05 ± 0.11. In addition, in data set [2], the “Solubility (ug/mL) pH 4” value amounted to 0.31 ± 0.04 ug/mL and the “Solubility (ug/mL) pH 7.4” value came to 0.16 ± 0.03 ug/mL.
`O=C(O)c1cc(-c2ccc([C@]3(O)C[C@H]4CC[C@@H](C3)N4)cc2)c2ccc(-c3ccc(C(F)(F)F)cc3)cc2c1` [Compound 127, 4-(4-((1R,3r,5S)-3-Hydroxy-8-azabicyclo[3.2.1]octan-3-yl)phenyl)-7-(4-(trifluoromethyl)phenyl)-2-naphthoic acid] registered a chromatographic logD in data set [1] of 1.16 ± 0.08.
In data set [1], `O=C(O)c1cc(-c2ccc(C3=CC4CCC(C3)N4)cc2)c2ccc(-c3ccc(C(F)(F)F)cc3)cc2c1` (centres unmarked) [Compound 128, 4-(4-(8-Azabicyclo[3.2.1]oct-2-en-3-yl)phenyl)-7-(4-(trifluoromethyl)phenyl)-2-naphthoic acid] gave a chromatographic logD of 2.33 ± 0.04. In data set [2], the “Solubility (ug/mL) pH 4” value came out at 2.36 ± 0.01 ug/mL and the “Solubility (ug/mL) pH 7.4” value came out at 0.35 ± 0.04 ug/mL.
`CN1C[C@H]2CC[C@@H](C1)[C@]2(O)c1ccc(-c2cc(C(=O)O)cc3cc(-c4ccc(C(F)(F)F)cc4)ccc23)cc1` [Compound 132, 4-(4-((1R,5S,8r)-8-Hydroxy-3-methyl-3-azabicyclo[3.2.1]octan-8-yl)phenyl)-7-(4-(trifluoromethyl)phenyl)-2-naphthoic acid] returned an IC50 at hP2Y14R of 0.0446 ± 0.0017 µM. The chromatographic logD in data set [1] is 1.37 ± 0.02. For the same molecule, the solubility (usually the dissolved amount per volume that the medium holds) amounted to 1.81 ± 0.05 µg/mL (≈ 3.4 µM) in data set [2] (pH 4, aqueous buffer) and 0.88 ± 0.09 µg/mL (≈ 1.66 µM) in data set [2] (pH 7.4, aqueous buffer).
In the case of `CC(=O)N1C[C@H]2C[C@@H]1C[C@@H]2c1ccc(-c2cc(C(=O)O)cc3cc(-c4ccc(C(F)(F)F)cc4)ccc23)cc1` (racemic) [Compound 113, rac-4-(4-((1S,4S,5S)-2-Acetyl-2-azabicyclo[2.2.1]heptan-5-yl)phenyl)-7-(4-(trifluoromethyl)phenyl)-2-naphthoic acid], the concentration for half-maximal inhibition (IC50) on hP2Y14R (setting [3]) was 0.0204 ± 0.0024 µM. Also, in data set [1], the chromatographic logD is 0.921 ± 0.034. Moreover, the solubility in data set [2] (pH 4, aqueous buffer) was 0.13 ± 0.04 µg/mL (≈ 0.245 µM); in data set [2] (pH 7.4, aqueous buffer), 2.53 ± 0.43 µg/mL (≈ 4.78 µM).
On to `O=C(O)c1cc(-c2ccc([C@@H]3CCN[C@@H]4C[C@@H]43)cc2)c2ccc(-c3ccc(C(F)(F)F)cc3)cc2c1` (racemic) [Compound 111, rac-4-(4-((1R,5R,6R)-2-Azabicyclo[4.1.0]heptan-5-yl)phenyl)-7-(4-(trifluoromethyl)phenyl)-2-naphthoic acid], for which, at hP2Y14R, the 50% inhibitory concentration (IC50) was determined as 0.0618 ± 0.0141 µM. For the same molecule, the chromatographic logD in data set [1] came out at 1.75 ± 0.06. The “Solubility (ug/mL) pH 4” value in data set [2] came out at 0.24 ± 0.02 ug/mL. This molecule showed a solubility in data set [2] (pH 7.4, aqueous buffer) of 0.05 ± 0.04 µg/mL (≈ 0.103 µM).
With `O=C(O)c1cc(-c2ccc([C@]3(O)C[C@H]4CC[C@@H]3CN4)cc2)c2ccc(-c3ccc(C(F)(F)F)cc3)cc2c1` [Compound 125a], the “Log D7.4” value in data set [1] (HPLC-based lipophilicity) came to 0.74 ± 0.05. Besides, in data set [2], the “Solubility (ug/mL) pH 4” value was 2.66 ± 0.29 ug/mL and the “Solubility (ug/mL) pH 7.4” value was found to be 2.19 ± 0.10 ug/mL.
For `O=C(O)c1cc(-c2ccc([C@@]3(O)C[C@H]4CC[C@@H]3CN4)cc2)c2ccc(-c3ccc(C(F)(F)F)cc3)cc2c1` [Compound 125b], in data set [2], the “Solubility (ug/mL) pH 4” value is 1.55 ± 0.11 ug/mL and the “Solubility (ug/mL) pH 7.4” value is recorded as 0.74 ± 0.06 ug/mL.
Consider `O=C(O)c1cc(-c2ccc([C@@]34CCNC[C@@H]3C4)cc2)c2ccc(-c3ccc(C(F)(F)F)cc3)cc2c1` (racemic) [Compound 108, 4-(4-(3-Azabicyclo[4.1.0]heptan-6-yl)phenyl)-7-(4-(trifluoromethyl)phenyl)-2-naphthoic acid], for which the half-maximal inhibitory concentration (IC50) at hP2Y14R came to 0.0455 ± 0.0072 µM. Also, the chromatographic logD in data set [1] amounted to 2.44 ± 0.06. Besides, the solubility in data set [2] (pH 4, aqueous buffer) was 1.32 ± 0.17 µg/mL (≈ 2.71 µM); in data set [2] (pH 7.4, aqueous buffer), 0.17 ± 0.01 µg/mL (≈ 0.349 µM).
At hP2Y14R, `O=C(O)c1cc(-c2ccc(C3C4CCC3CNC4)cc2)c2ccc(-c3ccc(C(F)(F)F)cc3)cc2c1` (centres unmarked) [Compound 133, 4-(4-(3-Azabicyclo[3.2.1]octan-8-yl)phenyl)-7-(4-(trifluoromethyl)phenyl)-2-naphthoic acid] gave a concentration for half-maximal inhibition (IC50) of 0.696 ± 0.1 µM. Moreover, in data set [1], the chromatographic logD was 2.97 ± 0.02. Also, the solubility turned out to be 0.32 ± 0.01 µg/mL (≈ 0.638 µM) in data set [2] (pH 4, aqueous buffer) and 0.16 ± 0.01 µg/mL (≈ 0.319 µM) in data set [2] (pH 7.4, aqueous buffer).
`O=C(O)c1cc(-c2ccc([C@@H]3CCN[C@H]4C[C@H]43)cc2)c2ccc(-c3ccc(C(F)(F)F)cc3)cc2c1` (racemic) [Compound 110, rac-4-(4-((1S,5R,6S)-2-Azabicyclo[4.1.0]heptan-5-yl)phenyl)-7-(4-(trifluoromethyl)phenyl)-2-naphthoic acid]: at hP2Y14R, the IC50 was 0.0424 ± 0.0117 µM. Besides, the chromatographic logD in data set [1] turned out to be 2.59 ± 0.2. Further, the solubility in data set [2] (pH 4, aqueous buffer) is 0.1 ± 0.03 µg/mL (≈ 0.205 µM); in data set [2] (pH 7.4, aqueous buffer), 0.51 ± 0.23 µg/mL (≈ 1.05 µM).
Molecule `O=C(O)c1cc(-c2ccc(C3CCNC3)cc2)c2ccc(-c3ccc(C(F)(F)F)cc3)cc2c1` (racemic) [Compound 105, 4-(4-(Pyrrolidin-3-yl)phenyl)-7-(4-(trifluoromethyl)phenyl)-2-naphthoic acid] registered a chromatographic logD in data set [1] of 1.89 ± 0.07.
For the molecule `N[C@H]1C[C@@H](C(=O)O)[C@H](c2ccc(-c3cc(C(=O)O)cc4cc(-c5ccc(C(F)(F)F)cc5)ccc34)cc2)C1` [Compound 139, 4-(4-((1R,2R,4R)-4-Amino-2-carboxycyclopentyl)phenyl)-7-(4-(trifluoromethyl)phenyl)-2-naphthoic acid], the IC50 at hP2Y14R (setting [3]) turned out to be 0.102 ± 0.025 µM. The “Log D7.4” value in data set [1] (HPLC-based lipophilicity) is given as −0.568 ± 0.038. In data set [2], the “Solubility (ug/mL) pH 4” value was 1.05 ± 0.20 ug/mL and the “Solubility (ug/mL) pH 7.4” value was 5.52 ± 0.21 ug/mL.
Consider `CC1CNCCC1c1ccc(-c2cc(C(=O)O)cc3cc(-c4ccc(C(F)(F)F)cc4)ccc23)cc1` (mixture of isomers) [Compound 106, 4-(4-(3-Methylpiperidin-4-yl)phenyl)-7-(4-(trifluoromethyl)phenyl)-2-naphthoic acid], for which, at hP2Y14R (setting [3]), the IC50 is 0.0209 ± 0.0036 µM. The same molecule came in with a chromatographic logD in data set [1] of 2.79 ± 0.09. In data set [2], the “Solubility (ug/mL) pH 4” value stood at 1.36 ± 0.21 ug/mL and the “Solubility (ug/mL) pH 7.4” value is given as 0.03 ± 0.02 ug/mL.
Take `O=C(O)c1cc(-c2ccc([C@H]3C[C@@H]4CN[C@H]3C4)cc2)c2ccc(-c3ccc(C(F)(F)F)cc3)cc2c1` [Compound 117, 4-(4-((1S,4S,6R)-2-Azabicyclo[2.2.1]heptan-6-yl)phenyl)-7-(4-(trifluoromethyl)phenyl)-2-naphthoic acid]: the IC50 on hP2Y14R (Table 6, fluorescent hP2Y14R antagonist (3), read-out: hP2Y14R, IC50) is 0.0259 ± 0.0076 µM. In addition, in data set [1], the chromatographic logD turned out to be 2.11 ± 0.06.
The molecule `O=C(O)c1cc(-c2ccc([C@H]3C[C@H]4C[C@@H]3CN4)cc2)c2ccc(-c3ccc(C(F)(F)F)cc3)cc2c1` (racemic) [Compound 112, rac-4-(4-((1S,4S,5S)-2-Azabicyclo[2.2.1]heptan-5-yl)phenyl)-7-(4-(trifluoromethyl)phenyl)-2-naphthoic acid] registered a 50% inhibitory concentration (IC50) on hP2Y14R of 0.0059 ± 0.0007 µM. In data set [1], the chromatographic logD is 1.95 ± 0.01. Besides, the solubility in data set [2] (pH 7.4, aqueous buffer) amounted to 0.47 ± 0.06 µg/mL (≈ 0.964 µM).
For `O=C(O)c1cc(-c2ccc(C3(O)C4CCC3CN(Cc3ccccc3)C4)cc2)c2ccc(-c3ccc(C(F)(F)F)cc3)cc2c1` (mixture of isomers) [Compound 130, 4-(4-((1R,5S,8r)-3-Benzyl-8-hydroxy-3-azabicyclo[3.2.1]octan-8-yl)phenyl)-7-(4-(trifluoromethyl)phenyl)-2-naphthoic acid], the chromatographic logD in data set [1] was found to be 3.26 ± 0.01.
With `O=C(O)c1cc(-c2ccc(-c3cc(CCO)on3)cc2)cc(-n2cc(-c3ccc(C(F)(F)F)cc3)nn2)c1` [Compound 30, 4′-(5-(2-Hydroxyethyl)isoxazol-3-yl)-5-(4-(4-(trifluoromethyl)phenyl)-1H-1,2,3-triazol-1-yl)-[1,1′-biphenyl]-3-carboxylic acid], on hP2Y14R (Table 1, fluorescent antagonist 2, hP2Y14R-CHO cells, 3-4 determinations, read-out: IC50, hP2Y14R (μM, mean ± SEM)), the half-inhibitory concentration (IC50) came out at 0.389 ± 0.042 µM.
As to `O=C(O)c1cc(-c2ccc([C@H]3C[C@H]4C[C@@H]3NC4=O)cc2)c2ccc(-c3ccc(C(F)(F)F)cc3)cc2c1` [Compound 122, 4-(4-((1S,4S,6R)-3-Oxo-2-azabicyclo[2.2.1]heptan-6-yl)phenyl)-7-(4-(trifluoromethyl)phenyl)-2-naphthoic acid], the IC50 at hP2Y14R (setting [3]) came to 0.0586 ± 0.0129 µM.
With “4-(4-(6-Methoxy-2-azaspiro[3.3]heptan-6-yl)phenyl)-7-(4-(trifluoromethyl)phenyl)-2-naphthoic acid and 4-(4-(6-(methoxy-d3)-2-azaspiro[3.3]heptan-6-yl)phenyl)-7-(4-(trifluoromethyl)phenyl)-2-naphthoic acid [Compound 409]”, the IC50 on hP2Y14R (Example 5 table, whole cell fluorescent binding assay, read-out: IC50) was determined as 0.0465 ± 0.01 µM.
